Results from paper PMC2196011 (The Journal of Experimental Medicine, 2002).

Biological target: T1, GST-PfNSMase (PfNSM product; plasmodial SM/LCPL-PLC) (Plasmodium falciparum, UniProt Q8WSF5)
T1 sequence (Q8WSF5 1-393): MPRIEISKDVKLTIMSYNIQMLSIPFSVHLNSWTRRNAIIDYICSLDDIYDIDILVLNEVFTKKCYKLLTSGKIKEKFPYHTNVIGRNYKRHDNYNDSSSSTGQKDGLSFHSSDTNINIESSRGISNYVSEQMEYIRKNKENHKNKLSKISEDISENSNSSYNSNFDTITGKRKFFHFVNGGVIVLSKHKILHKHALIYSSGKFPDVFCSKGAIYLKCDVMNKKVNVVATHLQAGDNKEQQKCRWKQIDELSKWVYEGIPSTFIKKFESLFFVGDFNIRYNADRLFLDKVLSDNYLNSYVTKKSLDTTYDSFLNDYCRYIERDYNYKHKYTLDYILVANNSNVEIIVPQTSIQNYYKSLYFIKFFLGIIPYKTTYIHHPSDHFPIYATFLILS
Assay: competition of […]lysoPtdCho hydrolysis, E. coli membrane fraction
Format: biochemical
Conditions: 10 μM [palmitoyl-1-14C]lysoPtdCho; detergent-free; 10 mM MgCl2; pH 7.5; 37°C

SMILES | % of control activity
CCCCCCCCCCCCCCCCOC[C@@H](O)COP(=O)([O-])OCC[N+](C)(C)C [lysoPAF] | The activity was moderately competed by PAF and lysoPAF
CCCCCCCCCCCCC/C=C/[C@@H](O)[C@@H](N)COP(=O)([O-])OCC[N+](C)(C)C [sphingosylphosphocholine] | lysoPtdCho was strongly competed by sphingosylphosphocholine
